The series has as its system transplanted tumor of human pancreatic cancer cell PANC-1. The experiment in a line: PANC-1 transplanted tumor in nude mice. To be noted: for tumor volume and relative tumor volume compared with the model group: low, medium and high doses, P<0.05; for Tumor Volume (mm3) (d 1): d1; for mouse weight compared with the model group: in vivo. On the procedure: Then cell concentration was adjusted to 1×10^7/ml with matrigel, then each nude mouse was inoculated subcutaneously with 0.2 ml of cells at its right armpit and recorded as the first day of inoculation. When the tumor grows to be greater than or equal to 100 mm^3, the mice were randomly divided into 11 groups with 6 mice in each group: a model group, a cyclophosphamide group, isovaleryl spiramycin I groups with doses of 25, 50 and 100 mg/kg, isovaleryl spiramycin II groups with doses of 25, 50 and 100 mg/kg, and isovaleryl spiramycin III groups with doses of 25, 50 and 100 mg/kg. Each group was continuously administered intragastrically for 30 days with a dose of 20 ml/kg. The mice were sacrificed the next day after drug withdrawal and the indicators were tested. The long diameter and short diameter of the tumor, and the body weight of each mouse were recorded every 3 days from drug administration to nude mouse sacrifice.
The body weight of the nude mice and the long diameter (a) and short diameter (b) of the transplanted tumor were measured every 3 days, and the tumor volume (v), relative tumor volume (RTV) and relative tumor proliferation rate (T/C) are calculated respectively according to the following formulas, wherein V=a×b^2/2; RTV=V/V0 (V0 is the tumor volume before administration, V is the tumor volume before sacrifice), and T/C (%)=treatment group RTV/model control group RTV×100%.
Each mouse was weighed and sacrificed. After the tumor was completely stripped off from the body of the mouse, the non-tumor tissues such as blood stains and fat were removed to weigh the tumor and calculate the tumor growth inhibition rate. The average tumor weight of each group of mice is used as an indicator of efficacy. Tumor growth inhibition rate (%)=(1−the average tumor weight of the treatment group/the average tumor weight of the model group)×100%.

Where [1] appears, read: PANC-1, 12.5 mg/kg (low dose) i.g. 30 days.
The mark [2] stands for this setting: PANC-1, 25 mg/kg (medium dose) i.g. 30 days.
The mark [3] stands for this setting: PANC-1, 50 mg/kg (high dose) i.g. 30 days.
Setting [4] is: PANC-1, medium dose i.g. 30 days.

The record followed here is patent US20200163984A1, “USE OF ISOVALERYL SPIRAMYCIN I, II AND/OR III IN MANUFACTURING MEDICAMENT FOR TREATING AND/OR PREVENTING TUMOR, AND MEDICAMENT” (SHENYANG FUYANG PHARMACEUTICAL TECHNOLOGY CO., LTD., priority 2017, published 2020).

Structures are written as SMILES.

Consider `COC1C(OC(C)=O)CC(=O)OC(C)CC=CC=CC(OC2CCC(N(C)C)C(C)O2)C(C)CC(CC=O)C1OC1OC(C)C(OC2CC(C)(O)C(OC(=O)CC(C)C)C(C)O2)C(N(C)C)C1O` (stereo not drawn) [Isovaleryl spiramycin II, isovaleryl spiramycin II], for which the “mouse weight compared with the model group” value is “no significant changes”. For the same molecule, under setting [1], the “Inhibition Rate (tumor growth inhibition rate)” value (“Inhibition Rate” below) is 20.55% and the “Tumor Weight” value turned out to be 2.16 ± 0.51 g. Moreover, under setting [2], the “Inhibition Rate” value is on record as 41.72% and the “Tumor Weight” value was found to be 1.58 ± 0.51 g. In addition, under setting [3], the “Inhibition Rate” value is reported as 56.81% and the “Tumor Weight” value was found to be 1.17 ± 0.47 g. For the same molecule, the “Relative Tumor Proliferation Rate (T/C)” value (PANC-1, high dose i.g. 30 days) is reported as 44.44%. The “Relative Tumor Proliferation Rate (T/C)” value (PANC-1, low dose i.g. 30 days) is reported as 79.23%. Moreover, the “tumor volume and relative tumor volume compared with the model group” value (“tumor volume and relative tumor volume” for short) (PANC-1) is recorded as “significantly lower”. Further, the “Relative Tumor Proliferation Rate (T/C)” value under setting [4] is 60.58%. For the setting “PANC-1 nude mice, 12.5 mg/kg”, the “Relative Tumor Proliferation Rate (T/C)” value is reported as 79.23%, the “Relative Tumor Volume (RTV)” value came out at 13.87 ± 1.53, the “Tumor Volume (mm3) (d 1)” value amounted to 104.64 ± 10.69 mm3 and the “Tumor Volume (mm3) (d30)” value is 1450.36 ± 218.20 mm3. Also, where the note is “PANC-1 nude mice, 25 mg/kg”, the “Relative Tumor Proliferation Rate (T/C)” value came out at 60.58%, the “Relative Tumor Volume (RTV)” value worked out at 10.60 ± 1.10, the “Tumor Volume (mm3) (d 1)” value was found to be 105.81 ± 11.20 mm3 and the “Tumor Volume (mm3) (d30)” value is given as 1113.42 ± 71.14 mm3. In addition, for the setting “PANC-1 nude mice, 50 mg/kg”, the “Relative Tumor Proliferation Rate (T/C)” value is 44.45%, the “Relative Tumor Volume (RTV)” value is 7.78 ± 1.71, the “Tumor Volume (mm3) (d 1)” value is 119.69 ± 14.63 mm3 and the “Tumor Volume (mm3) (d30)” value is 914.69 ± 130.26 mm3.

Turning to `O=P1(N(CCCl)CCCl)NCCCO1` (stereo not drawn) [Cyclophosphamide, cyclophosphamide, reference compound], where the note is “PANC-1, 30 mg/kg i.g. 30 days”, the “Body Weight (d 1)” value came out at 22.03 ± 0.70 g, the “Body Weight (d 30)” value is listed as 17.77 ± 0.65 g, the “Inhibition Rate” value stood at 70.18% and the “Tumor Weight” value is listed as 0.81 ± 0.25*8 g. Besides, where the note is “PANC-1 nude mice, 30 mg/kg”, the “Relative Tumor Proliferation Rate (T/C)” value is 29.56%, the “Relative Tumor Volume (RTV)” value came out at 5.17 ± 0.64, the “Tumor Volume (mm3) (d 1)” value was found to be 103.78 ± 12.65 mm3 and the “Tumor Volume (mm3) (d30)” value worked out at 532.62 ± 56.27 mm3.

Consider `CO[C@@H]1[C@@H](O[C@@H]2O[C@H](C)[C@@H](O[C@H]3C[C@@](C)(O)[C@@H](OC(=O)CC(C)C)[C@H](C)O3)[C@H](N(C)C)[C@H]2O)[C@@H](CC=O)C[C@@H](C)[C@@H](O[C@H]2CC[C@H](N(C)C)[C@@H](C)O2)/C=C/C=C/C[C@@H](C)OC(=O)C[C@H]1O` [Isovaleryl spiramycin I, isovaleryl spiramycin I], for which the “mouse weight compared with the model group” value is “no significant changes”. Under setting [1], the “Inhibition Rate” value worked out at 31.10% and the “Tumor Weight” value is 1.87 ± 0.25 g. In addition, under setting [2], the “Inhibition Rate” value is recorded as 51.72% and the “Tumor Weight” value is recorded as 1.31 ± 0.50 g. Besides, under setting [3], the “Inhibition Rate” value was 70.12% and the “Tumor Weight” value was 0.81 ± 0.08 g. The “Relative Tumor Proliferation Rate (T/C)” value (PANC-1, high dose i.g. 30 days) is recorded as 30.80%. For the same molecule, the “Relative Tumor Proliferation Rate (T/C)” value (PANC-1, low dose i.g. 30 days) came to 71.92%. For the same molecule, the “tumor volume and relative tumor volume” value (PANC-1) is listed as “significantly lower”. Also, the “Relative Tumor Proliferation Rate (T/C)” value under setting [4] came out at 49.05%. For the same molecule, where the note is “PANC-1 nude mice, 12.5 mg/kg”, the “Relative Tumor Proliferation Rate (T/C)” value is 71.92%, the “Relative Tumor Volume (RTV)” value is 12.59 ± 7.49, the “Tumor Volume (mm3) (d 1)” value is on record as 139.97 ± 26.58 mm3 and the “Tumor Volume (mm3) (d30)” value is 1634.85 ± 789.61 mm3. Under “PANC-1 nude mice, 25 mg/kg”, the “Relative Tumor Proliferation Rate (T/C)” value is given as 49.05%, the “Relative Tumor Volume (RTV)” value was determined as 8.58 ± 4.41, the “Tumor Volume (mm3) (d 1)” value is listed as 146.57 ± 32.97 mm3 and the “Tumor Volume (mm3) (d30)” value amounted to 1162.80 ± 394.71 mm3. Where the note is “PANC-1 nude mice, 50 mg/kg”, the “Relative Tumor Proliferation Rate (T/C)” value was found to be 30.80%, the “Relative Tumor Volume (RTV)” value is reported as 5.39 ± 0.97, the “Tumor Volume (mm3) (d 1)” value is 124.02 ± 15.14 mm3 and the “Tumor Volume (mm3) (d30)” value is 656.95 ± 49.58 mm3.

Turning to `CCC(=O)O[C@@H]1CC(=O)O[C@H](C)C/C=C/C=C/[C@H](O[C@H]2CC[C@H](N(C)C)[C@@H](C)O2)[C@H](C)C[C@H](CC=O)[C@H](O[C@@H]2O[C@H](C)[C@@H](O[C@H]3C[C@@](C)(O)[C@@H](OC(=O)CC(C)C)[C@H](C)O3)[C@H](N(C)C)[C@H]2O)[C@H]1OC` [Isovaleryl spiramycin III, isovaleryl spiramycin III], the “mouse weight compared with the model group” value is recorded as “no significant changes”. Further, under setting [1], the “Inhibition Rate” value is on record as 26.75% and the “Tumor Weight” value amounted to 1.99 ± 0.81 g. Also, under setting [2], the “Inhibition Rate” value is on record as 39.09% and the “Tumor Weight” value is 1.66 ± 0.66 g. The “Inhibition Rate” value (PANC-1, 25 mg/kg (medium dose) i.g. 30 days, listed as isovaleryl spiramycin III) stood at 39.08%. Under setting [3], the “Inhibition Rate” value is on record as 61.78% and the “Tumor Weight” value is recorded as 1.03 ± 0.54 g. Besides, the “Relative Tumor Proliferation Rate (T/C)” value (PANC-1, high dose i.g. 30 days) amounted to 34.91%. Besides, the “Relative Tumor Proliferation Rate (T/C)” value (PANC-1, low dose i.g. 30 days) was 75.03%. The “tumor volume and relative tumor volume” value (PANC-1) is “significantly lower”. The “Relative Tumor Proliferation Rate (T/C)” value under setting [4] stood at 54.92%. Further, for the setting “PANC-1 nude mice, 12.5 mg/kg”, the “Relative Tumor Proliferation Rate (T/C)” value stood at 75.03%, the “Relative Tumor Volume (RTV)” value was 13.13 ± 3.15, the “Tumor Volume (mm3) (d 1)” value was determined as 137.99 ± 20.99 mm3 and the “Tumor Volume (mm3) (d30)” value is 1758.49 ± 129.06 mm3. Moreover, where the note is “PANC-1 nude mice, 25 mg/kg”, the “Relative Tumor Proliferation Rate (T/C)” value turned out to be 54.92%, the “Relative Tumor Volume (RTV)” value is given as 9.61 ± 1.66, the “Tumor Volume (mm3) (d 1)” value is 109.95 ± 13.42 mm3 and the “Tumor Volume (mm3) (d30)” value was 1043.33 ± 113.01 mm3. Moreover, for the setting “PANC-1 nude mice, 50 mg/kg”, the “Relative Tumor Proliferation Rate (T/C)” value is recorded as 34.90%, the “Relative Tumor Volume (RTV)” value is on record as 5.17 ± 0.64, the “Tumor Volume (mm3) (d 1)” value is 113.14 ± 9.02 mm3 and the “Tumor Volume (mm3) (d30)” value amounted to 684.21 ± 115.00 mm3.
